Publication PMC10878751, “N-Substituted Phenylhydrazones Kill the Ring Stage of Plasmodium falciparum” (BioMed Research International, 2024)
Like-named read-outs stand apart in the source and are kept apart here.

Columns and labels:
[1] = tested on: 3D7 chloroquine-sensitive strain of Plasmodium falciparum; assay: SYBR green antimalarial assay, 3D7 strain
Method: (§1) The SYBR green and cytotoxicity assay procedure to determine the potency of the phenylhydrazones was according to [16].
(§2) One-milligram (1 mg) powder of each compounds was weighed and transferred into dimethylsulphoxide (DMSO) (1 ml of 0.5% v/v) to yield a stock concentration of 1000 μg/ml. The stock solution was vortexed well to dissolve the compounds and later filtered through 0.2 μm pore filter unit and then stored in a -20°C freezer until use. The stock products were diluted 10-fold to obtain a working solution of 100 μg/ml. This working solution was further serially diluted […] to obtain the concentrations 100 μg/ml, 50 μg/ml, 25 μg/ml, 12.5 μg/ml, 6.25 μg/ml, 3.13 μg/ml, 1.56 μg/ml, 0.78 μg/ml, and 0.39 μg/ml.
(§3) Continuous P. falciparum asexual cultures were maintained in vitro in an atmosphere of 93% N2, 4% CO2, and 3% O2 at 37°C in complete medium (CM) (10.44 g/liter Roswell Park Memorial Institute Medium (RPMI) 1640, 5.94 g/liter N-2-hydroxyethylpiperazine-N-2-ethane sulfonic acid (HEPES), 5 g/liter AlbuMAX II, 50 mg/liter hypoxanthine, and 2.1 g/liter sodium bicarbonate). Parasites were cultured in O+ RBCs and maintained in the incubator with daily media change until a parasitemia of more than 5% ring stages was obtained. The culture was then treated with 5% sorbitol to obtain synchronized ring stage, and parasite growth was monitored for some few days by estimating percentage (%) parasitemia using Giemsa-stained slides and light microscope with 100x magnification until parasitemia of more than 5% was recorded. Parasite suspension of 2% hematocrit with 1% parasitemia was prepared using uninfected blood to make a total of 14 ml in a complete culture medium for the plating. Compound plating and SYBR green assay were according to [16].
(§4) One hundred (100) microliters of each nine dilutions (100 μg/ml, 50 μg/ml, 25 μg/ml, 12.5 μg/ml, 6.25 μg/ml, 3.13 μg/ml, 1.56 μg/ml, 0.78 μg/ml, and 0.39 μg/ml) was plated in duplicate in a 96-well coastal plate. 15 ng/ml of artesunate was serially diluted and plated alongside with the compounds as a standard antimalarial control drug. One hundred of parasite mix with 2% hematocrit and 1% parasitemia were added to each treated well starting from the 2nd well to the 10th well. One hundred microliters of parasite mix without any drug was added to the 11th well as a negative control, and the procedure was repeated for the rest of other extract/compounds. The plates were arranged in a modular chamber and gassed for 5 min with gas mixture of 5% oxygen, 5% carbon dioxide, and 90% nitrogen and then kept at 37°C for 72 h.
(§5) The plates were harvested after 72 h, and the assays were paused by adding 100 μl lysing buffer containing SYBR green to each well and was thoroughly and gently mixed to avoid production of bubbles. The plates were then incubated in the dark for 30-60 minutes before reading the assay using FLUOstar OPTIMA Fluorometer plate reader with control software version 2.20 at 470 nm and 520 nm wavelengths.
(§6) Each compound was tested in triplicate concentration that inhibits asexual Plasmodium falciparum parasite by 50% (IC50) estimated from dose-response curves by nonlinear regression analysis using GraphPad Prism version 7.0 software (GraphPad software, San Diego, CA, USA). Cytotoxicity analysis was carried out using Microsoft Excel Version 2010.

[2] = tested on: DD2 chloroquine-resistance strain; assay: SYBR green antimalarial assay, DD2 strain
Method: as §1, §2, §3, §4, §5, §6

[3] = tested on: uninfected red blood cells; assay: MTT cytotoxicity assay; settings: uninfected red blood cells, 72 h, MTT
Method: as §1
(§7) Following that, 100 μl of uninfected red blood cells was put to each well. Compound, culture medium, and uninfected red blood cells were subtracted from the optical densities by running control experiments for each parameter independently alongside the main experiment. The plates were then incubated for 72 hours at 37°C in a humidified incubator with 5% O2 and CO2 before 20 μl of 2.5 mg/ml MTT (in phosphate-buffered saline) solution was added to each well, and the plate was incubated for another 2 hours. After incubation, aliquots of culture medium (150 μl) were taken and discarded from each well, and 200 μl of Triton X-100 in acidified isopropanol was added to each well to dissolve any formazan produced. The plates were then maintained at room temperature in the dark for 24 hours before the optical densities of the wells were measured using a plate reader at 570 nm. […] The CC50 values were compared to the standard values.

[4] = MTT cytotoxicity assay
Method: as §1, §7

[5] = Plasmodium falciparum, 3D7, 72 h, read-out: 3D7 IC50
[6] = Plasmodium falciparum, DD2, 72 h, read-out: DD2 IC50
[7] = Plasmodium falciparum, DD2, read-out: pIC50 Dd2 (converted)
[8] = Plasmodium falciparum, 3D7, read-out: pIC50 3D7 (converted)

Compound | pIC50 3D7 ([1]; calculated from in vitro IC50s, 3D7 CS strain) | IC50 ([1]; read-out: 3D7 IC50, 3D7 chloroquine-sensitive strain, ring stage, 72 h, SYBR green) | pIC50 Dd2 ([2]; calculated from in vitro IC50s, DD2 CR strain) | IC50 ([2]; read-out: DD2 IC50, DD2 chloroquine-resistant strain, ring stage, 72 h, SYBR green) | CC50 [3] | SI = CC50/IC50 for 3D7 [1] | IC50 [1, 5] | SI = CC50/IC50 for DD2 [2] | IC50 [2, 6] | CC50 at 72 h ([4]; uninfected red blood cells) | SI = CC50/IC50 for 3D7 ([1]; selectivity index) | IC50 [2, 7] | SI = CC50/IC50 for DD2 ([2]; selectivity index) | CC50 at 72 h [4] | IC50 [1, 8]
1-Benzylidene-2-(2,4-dinitrophenyl)hydrazine [PHN5] | 4.25 | 19.02 ± 0.02 µM | 4.71 | 6.591 ± 0.06 µM | 112 µM |  |  |  |  |  |  |  |  |  | 
C[C@H]1[C@H](OC(=O)CCC(=O)O)O[C@@H]2O[C@@]3(C)CC[C@H]4[C@H](C)CC[C@@H]1[C@@]24OO3 [Artesunate, reference compound] |  |  |  |  |  | >1000 | 0.004688 ± 1.7e-05 µM | >1000 | 0.005063 ± 2.3e-05 µM | 84.7 µM |  |  |  |  | 
O=[N+]([O-])c1ccc(NN=C(c2ccccc2)c2ccccc2)c([N+](=O)[O-])c1 [PHN1, (2,4-Dinitrophenyl)-2-(diphenylmethylene) Hydrazine] |  |  |  |  |  |  | 31 ± 0.37 µM |  | 34.89 ± 0.17 µM |  | 3 | 89.1 µM | 3 | 106 µM | 
O=[N+]([O-])c1ccc(NN=Cc2ccc(O)cc2O)c([N+](=O)[O-])c1 [PHN2, 4-(2-(2,4-Dinitrophenylhydrazono) Methyl) Benzene-1,3-diol] |  |  |  |  |  |  | 14.12 ± 0.04 µM |  | 16.2 ± 0.17 µM |  | 8 | 40.7 µM | 7 | 119 µM | 269 µM
COc1cc(C=NNc2ccc([N+](=O)[O-])cc2[N+](=O)[O-])ccc1O [PHN3] |  |  |  |  |  |  | 6.6 ± 0.03 µM |  | 2.415 ± 0.01 µM |  | 20 | 6.61 µM | 55 | 132 µM | 18.2 µM
O=[N+]([O-])c1ccc(NN=Cc2cccc(O)c2)c([N+](=O)[O-])c1 [PHN6, 3-(2-2(4-Dinitrophenyl) Hydrazono) Methylphenol] |  |  |  |  |  |  | 1.29 ± 0.05 µM |  | 5.12 ± 0.07 µM |  | 79 | 17 µM | 19 | 101 µM | 4.27 µM
